Measurements from patent US5770742A, “Thiophene-tryptamine derivatives” (Allelix Biopharmaceuticals Inc., priority 1996, dated 1998).
Where two headings read alike, the source gives them in different places.

What was measured:
5-HT1D receptor = molecular target: T1, 5-HT1D receptor (Oryctolagus cuniculus, UniProt P49144); test: Agonist assay, contraction of rabbit isolated saphenous vein; set-up: species or system rabbit (male New Zealand White)
T1 construct: Ring segments of the vein (4-5 mm in length) were cut and the endothelium gently removed; from tissue; host or cells: rabbit saphenous vein rings, endothelium removed
T1 sequence (P49144 whole entry): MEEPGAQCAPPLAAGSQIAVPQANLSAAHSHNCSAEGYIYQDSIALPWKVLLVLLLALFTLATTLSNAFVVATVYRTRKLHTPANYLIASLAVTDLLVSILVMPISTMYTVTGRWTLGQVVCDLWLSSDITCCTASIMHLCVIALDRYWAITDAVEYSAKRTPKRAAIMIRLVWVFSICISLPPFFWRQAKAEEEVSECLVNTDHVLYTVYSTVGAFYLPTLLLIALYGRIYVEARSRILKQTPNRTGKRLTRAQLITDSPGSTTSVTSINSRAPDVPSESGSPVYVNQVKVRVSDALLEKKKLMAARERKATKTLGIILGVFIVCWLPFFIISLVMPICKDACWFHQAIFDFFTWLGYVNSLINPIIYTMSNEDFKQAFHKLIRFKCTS
Method: Tissues were obtained from male New Zealand White rabbits (c. 3-4 kg) which were sacrificed by an overdose of pentobarbitol. The saphenous veins from both the left and right side were cleaned of fat and connective tissue and placed in Krebs solution (118 mM NaCl, 11 mM glucose, 25 mM NaHCO3, 4,7 mM KCl, 2.5 mM CaCl2 2H2 O, 1.2 mM KH2 PO4 and 1.2 mM MgSO4 7H2 O). Ring segments of the vein (4-5 mm in length) were cut and the endothelium gently removed. The segments were mounted in 10 mL baths containing Krebs buffer and were constantly aerated with 95% oxygen/5% carbon dioxide and maintained at 37° C. and pH 7.4 in order to record the isometric tension. A resting tension of 2.5 g was applied and the tissues allowed to equilibrate for 90 minutes, with washing every 15-20 minutes. After the equilibrium period, the rings were depolarized by addition of two aliquots of KCl (80 mM final concentration)separated by a 20 minute washing period. The tissues were then exposed to prazosin, idazoxan and indomethacin (all 1 μM in final concentration) for 30 minutes in order to exclude the actions of α1 - and α2 -adrenergic receptors and prostaglandin receptors respectively. […] Responses were calculated as a percentage of the maximal contraction evoked by 80 mM KCl. Only one compound was tested per preparation.
EC50 represents the concentration of the compound which causes 50% of the maximum contraction effected by it.

5-HT1Dβ = molecular target: T2, 5-HT1Dβ (Homo sapiens, UniProt P28222); test: Binding affinity, inhibition of 3H-5-HT binding, 5-HT1Dβ; details: 1 h, 100 nm, 60 minute at 22° C., mean of triplicate determinations
T2 construct: expressed in transfected cells
T2 sequence (P28222 whole entry): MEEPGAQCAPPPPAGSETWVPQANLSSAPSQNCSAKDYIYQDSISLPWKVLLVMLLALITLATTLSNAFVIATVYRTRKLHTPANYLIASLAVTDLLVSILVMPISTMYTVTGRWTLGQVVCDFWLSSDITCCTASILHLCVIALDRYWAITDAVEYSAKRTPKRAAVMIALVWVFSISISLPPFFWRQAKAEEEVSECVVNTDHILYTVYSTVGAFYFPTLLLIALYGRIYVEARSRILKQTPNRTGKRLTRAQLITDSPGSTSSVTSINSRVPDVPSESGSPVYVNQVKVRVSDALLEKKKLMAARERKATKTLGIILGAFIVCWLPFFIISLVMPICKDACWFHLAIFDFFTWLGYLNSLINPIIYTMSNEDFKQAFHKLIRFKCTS
Method: (§1) Compounds of the previous examples, as well as reference compounds, were evaluated for binding affinity using cell types receptive specifically to 5-HT1Dα and 5-HT1Dβ ligands. The assay protocol generally entailed the incubation of membranes prepared from cells expressing the 1Dβ or 1Dα sub-type of 5-HT receptors, with ^3 H-5-HT. The test compound was incubated at 100 nm concentration with the radioligand and the membrane homogenates prepared from the recombinant cells. After a 60 minute incubation at 22° C., the incubation was terminated by vacuum filtration. The filters were washed with buffer and counted for radioactivity using liquid scintillation spectrometry. The affinity of the test compound for the 5-HT1Dβ or 5-HT1Dα receptor estimated by its inhibition of binding of the radioligand to the receptor. The result is expressed desciptively as percent inhibition of binding. Each value is the mean of triplicate determinations.

5-HT1Dα = molecular target: T3, 5-HT1Dα (Homo sapiens, UniProt P28221); test: Binding affinity, inhibition of 3H-5-HT binding, 5-HT1Dα; details: 1 h, 100 nm, 60 minute at 22° C., mean of triplicate determinations
T3 construct: expressed in transfected cells
T3 sequence (P28221 whole entry): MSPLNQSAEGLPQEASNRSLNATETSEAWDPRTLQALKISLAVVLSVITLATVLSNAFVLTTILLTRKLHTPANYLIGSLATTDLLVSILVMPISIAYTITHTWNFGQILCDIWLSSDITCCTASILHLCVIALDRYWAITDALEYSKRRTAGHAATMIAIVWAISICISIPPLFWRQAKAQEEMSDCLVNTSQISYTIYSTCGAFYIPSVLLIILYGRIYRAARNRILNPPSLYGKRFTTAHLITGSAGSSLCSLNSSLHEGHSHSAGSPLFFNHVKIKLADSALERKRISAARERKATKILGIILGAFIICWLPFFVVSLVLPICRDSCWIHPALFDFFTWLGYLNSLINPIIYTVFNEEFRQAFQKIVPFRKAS
Method: as §1, with “determinations. For comparison, sumatriptan was also evaluated. The results are presented in Table 2 below, with reference to the compound numbers of Table 1 and the specific synthesis examples given above.” for “determinations.”

5-HT1F = details: prior art; cited from earlier work
other 5-HT receptors = details: prior art; cited from earlier work
5-HT1D = details: prior art; cited from earlier work
5-HT1 receptor = details: WO 93/21178, Example 67; cited from earlier work
[1] = rabbit isolated saphenous vein, 50% of the maximum contraction effected by the compound, with prazosin, idazoxan, indomethacin 1 μM, read-out: EC50

SMILES	EC50 (5-HT1D receptor; [1])	inhibition at 0.1 µM (5-HT1Dβ)	inhibition at 0.1 µM (5-HT1Dα)	further results
CN(C)CCc1c[nH]c2ccc(-c3cccs3)cc12 [Compound 4, 3-(2-N,N-Dimethylaminoethyl)-5-(2-thienyl)-1H-indole]	806 nM	72%	97%	–
NCCc1c[nH]c2ccc(-c3cccs3)cc12 [Compound 7, 3-(2-Aminoethyl)-5-(2-thienyl)-1H-indole]	607 nM	78%	98%	–
CN1CCC[C@H]1Cc1c[nH]c2ccc(-c3cccs3)cc12 [Compound 6, 3-(N-Methylpyrrolidin-2S-ylmethyl)-5-(2-thienyl)-1H-indole]	873 nM	47%	96%	–
CN1CCC[C@@H]1Cc1c[nH]c2ccc(-c3ccsc3)cc12 [Compound 2, 3-(N-Methylpyrrolidin-2R-ylmethyl)-5-(3-thienyl)-1H-indole]	140 nM	83%	99%	–
Cc1ccc(-c2ccc3[nH]cc(CCN(C)C)c3c2)s1 [Compound 12, 3-(2-N,N-Dimethylaminoethyl)-5-(5-methylthien-2-yl)-1H-indole]	–	52%	87%	–
CNS(=O)(=O)Cc1ccc2[nH]cc(CCN(C)C)c2c1 [Sumatriptan]	–	–	95%	binding affinity for 5-HT1F (5-HT1F): high affinity; binding to other 5-HT receptors (other 5-HT receptors): substantial exclusion of other 5-HT receptors; binding affinity for 5-HT1D (5-HT1D): high affinity
CN(C)CCc1c[nH]c2ccc(-c3ccc(CO)s3)cc12 [Compound 5, 3-(2-N,N-Dimethylaminoethyl)-5-(5-hydroxymethylthienyl-2-yl)-1H-indole]	–	77%	96%	–
CN1CCC[C@@H]1Cc1c[nH]c2ccc(-c3cccs3)cc12 [Compound 1, 3-(N-Methylpyrrolidin-2R-ylmethyl)-5-(2-thienyl)-1H-indole]	121 nM	84%	98%	–
CN1CCC[C@@H]1Cc1c[nH]c2ccc(-c3ccc(C(N)=O)s3)cc12 [5-(5-carbamoyl-2-thienyl)-3-(1-methylpyrrolidin-2(R)-ylmethyl)-1H-indole]	–	–	–	5-HT1 receptor activity (5-HT1 receptor): some 5-HT1 receptor activity
CN(C)CCc1c[nH]c2ccc(-c3ccc(Cl)s3)cc12 [Compound 9, 5-(5-Chlorothien-2-yl)-3-(2-N,N-dimethylaminoethyl)-1H-indole]	–	83%	97%	–
CN(C)CCc1c[nH]c2ccc(-c3ccsc3)cc12 [Compound 3, 3-(2-N,N-Dimethylaminoethyl)-5-(3-thienyl)-1H-indole]	432 nM	78%	98%	–
c1csc(-c2ccc3[nH]cc(CCN4CCCC4)c3c2)c1 [Compound 11, 3-(2-Pyrrolidinylethyl)-5-(2-thienyl)-1H-indole]	–	14%	84%	EC50 (5-HT1D receptor): 2340 nM; Emax (5-HT1D receptor; rabbit isolated saphenous vein, maximum contraction vs KCl (80 mM), read-out: agonist type (maximum contraction relative to 80 mM KCl)): < 60%
CN(C)CC(O)c1c[nH]c2ccc(-c3ccsc3)cc12 (racemic) [Compound 10, (±)-3-(2-N,N-Dimethylamino-1-hydroxylethyl)-5-(3-thienyl)-1H-indole]	888 nM	42%	93%	–
CN1CCC(c2c[nH]c3ccc(-c4cccs4)cc23)C1 (racemic) [Compound 8, 3-(N-Methylpyrrolidin-3-yl)-5-(2-thienyl)-1H-indole]	1730 nM	68%	95%	–
